Test results published in US10875876B2, “Cyclized sulfamoylarylamide derivatives and the use thereof as medicaments for the treatment of hepatitis B” (priority 2015, dated 2020).
Where two headings read alike, the source gives them in different places.

Key:
HBV = assay: anti HBV activity, HepG2.117 cell line, intracellular HBV DNA by realtime PCR; assay type: cell-based; settings: HepG2.117 cell line (Tet-off), 3 days of treatment, intracellular HBV DNA quantified by realtime PCR, read-out: HBV-AVE-HepG2.117 EC50
In short: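 Readout was intracellular HBV DNA by real-time PCR (HBV-specific primers and probe) after 3 days of compound exposure. Serial dilutions were tested in duplicate on HepG2.117 cells, a stable inducible HBV producer in which replication is switched on when doxycycline is absent.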

HepG2 cells = assay: Cytotoxicity in HepG2 cells, Resazurin assay; settings: read-out: TOX-HepG2-4 d CC50; HepG2 cells incubated for 4 days, viability by Resazurin assay
[1] = Cytotoxicity in HepG2 cells, Resazurin assay; settings: human, HepG2 cells, TOX-HepG2-4 d CC50 (μM), HepG2 cells incubated for 4 days, viability by Resazurin assay

Row | Compound | EC50 (HBV) [nM] | CC50 (HepG2 cells) [nM] | EC50 (HBV; Hepatitis B virus, HepG2.117, 72 h) [nM] | CC50 at 4 days [1] [µM] | melting point [°C]
1 | Cc1cc(CC2(C)COc3c(cn(C)c3C(=O)Nc3ccnc(Cl)c3)S(=O)(=O)N2)no1 (single isomer, unassigned) [Compound 213b, N-(2-chloro-4-pyridyl)-3,7-dimethyl-3-[(5-methylisoxazol-3-yl)methyl]-1,1-dioxo-2,4-dihydropyrrolo[3,4-b][1,4,5]oxathiazepine-6-carboxamide] | 16 | > 25000 | – | – | –
2 | Cc1cc(CC2(C)COc3c(cn(C)c3C(=O)Nc3ccnc(C(F)F)c3)S(=O)(=O)N2)no1 (single isomer, unassigned) [Compound 209b, N-[2-(difluoromethyl)-4-pyridyl]-3,7-dimethyl-3-[(5-methylisoxazol-3-yl)methyl]-1,1-dioxo-2,4-dihydropyrrolo[3,4-b][1,4,5]oxathiazepine-6-carboxamide] | 18 | > 25000 | – | – | –
3 | Cn1cc2c(c1C(=O)Nc1ccc(F)c(F)c1)OCC(C)(c1ncccn1)NS2(=O)=O (single isomer, unassigned) [Compound 153b, N-(3,4-difluorophenyl)-3,7-dimethyl-1,1-dioxo-3-pyrimidin-2-yl-2,4-dihydropyrrolo[3,4-b][1,4,5]oxathiazepine-6-carboxamide] | 60 | > 25000 | – | – | –
4 | C[C@@H]1NS(=O)(=O)c2cn(C)c(C(=O)Nc3ccc(F)c(F)c3)c2O[C@@H]1C [compound 228] | > 500 | > 25000 | – | – | –
5 | CCC(O)[C@H]1COc2c(cn(C)c2C(=O)Nc2ccc(F)c(F)c2)S(=O)(=O)N1 (stereo partly drawn) [Compound 130b, (3R)—N-(3,4-difluorophenyl)-3-(1-hydroxypropyl)-7-methyl-1,1-dioxo-3,4-dihydro-2H-pyrrolo[3,4-b][1,4,5]oxathiazepine-6-carboxamide] | 12 | > 25000 | – | – | –
6 | Cn1cc2c(c1C(=O)Nc1ccc(F)c(F)c1)OC[C@@H](C(O)C1CC1)NS2(=O)=O (single isomer, unassigned) [Compound 92b] | 170 | > 25000 | – | – | –
7 | Cn1cc2c(c1C(=O)Nc1ccc(F)c(F)c1)OCC(C1CCOCC1)NS2(=O)=O (single isomer, unassigned) [Compound 89b, N-(3,4-difluorophenyl)-7-methyl-1,1-dioxo-3-tetrahydropyran-4-yl-3,4-dihydro-2H-pyrrolo[3,4-b][1,4,5]oxathiazepine-6-carboxamide] | 17 | > 25000 | – | – | –
8 | CC1COc2c(cn(C)c2C(=O)Nc2ccc(F)c(F)c2)S(=O)(=O)N1 (single isomer, unassigned) [Compound 14b, N-(3,4-difluorophenyl)-3,7-dimethyl-1,1-dioxo-3,4-dihydro-2H-pyrrolo-[3,4-b][1,4,5]oxathiazepine-6-carboxamide] | 78 | > 25000 | – | – | –
9 | Cn1ccc(C2(C)COc3c(cn(C)c3C(=O)Nc3ccc(F)c(F)c3)S(=O)(=O)N2)n1 (single isomer, unassigned) [Compound 192b, N-(3,4-difluorophenyl)-3,7-dimethyl-3-(1-methylpyrazol-3-yl)-1,1-dioxo-2,4-dihydropyrrolo[3,4-b][1,4,5]oxathiazepine-6-carboxamide] | 24 | > 25000 | – | – | –
10 | Cc1cc(CC2(C)COc3c(cn(C)c3C(=O)Nc3ccc(F)c(F)c3)S(=O)(=O)N2)no1 (single isomer, unassigned) [Compound 162b, N-(3,4-difluorophenyl)-3,7-dimethyl-3-[(5-methylisoxazol-3-yl)methyl]-1,1-dioxo-2,4-dihydropyrrolo[3,4-b][1,4,5]oxathiazepine-6-carboxamide] | 11 | > 25000 | – | – | –
11 | Cn1cc2c(c1C(=O)Nc1ccc(F)c(F)c1)OCC(C)(c1ncco1)NS2(=O)=O (single isomer, unassigned) [Compound 160b, N-(3,4-difluorophenyl)-3,7-dimethyl-3-oxazol-2-yl-1,1-dioxo-2,4-dihydropyrrolo[3,4-b][1,4,5]oxathiazepine-6-carboxamide] | 21 | > 25000 | – | – | –
12 | CC(NCC(F)(F)F)C1CCc2c(cn(C)c2C(=O)Nc2cc(F)c(F)c(F)c2)S(=O)(=O)N1 (single isomer, unassigned) [Compound 218d, 7-methyl-1,1-dioxo-3-[1-(2,2,2-trifluoroethylamino)ethyl]-N-(3,4,5-trifluorophenyl)-2,3,4,5-tetrahydropyrrolo[3,4-f]thiazepine-6-carboxamide] | 21 | > 25000 | – | – | –
13 | CC(C)C(O)C1COc2c(cn(C)c2C(=O)Nc2ccc(F)c(F)c2)S(=O)(=O)N1 (single isomer, unassigned) [Compound 114b, N-(3,4-difluorophenyl)-3-(1-hydroxy-2-methyl-propyl)-7-methyl-1,1-dioxo-3,4-dihydro-2H-pyrrolo[3,4-b][1,4,5]oxathiazepine-6-carboxamide] | 8 | > 25000 | – | – | –
14 | CC1C/C=C\c2c(cn(C)c2C(=O)Nc2ccc(F)c(F)c2)S(=O)(=O)N1 (single isomer, unassigned) [Compound 15b, (5Z)—N-(3,4-difluorophenyl)-3,8-dimethyl-1,1-dioxo-3,4-dihydro-2H-pyrrolo[3,4-g]thiazocine-7-carboxamide] | > 500 | > 25000 | – | – | –
15 | Cn1cc2c(c1C(=O)Nc1ccc(F)c(F)c1)OC[C@H](C(O)C1CC1)NS2(=O)=O (stereo partly drawn) [Compound 105b, (3R)-3-[cyclopropyl(hydroxy)methyl]-N-(3,4-difluorophenyl)-7-methyl-1,1-dioxo-3,4-dihydro-2H-pyrrolo[3,4-b][1,4,5]oxathiazepine-6-carboxamide] | 11 | > 25000 | – | – | –
16 | Cn1cc2c(c1C(=O)Nc1ccc(F)c(F)c1)OCC(C)(CO)NS2(=O)=O (single isomer, unassigned) [Compound 203b, N-(3,4-difluorophenyl)-3-(hydroxymethyl)-3,7-dimethyl-1,1-dioxo-2,4-dihydropyrrolo[3,4-b][1,4,5]oxathiazepine-6-carboxamide] | 59 | > 25000 | – | – | –
17 | Cn1cc2c(c1C(=O)Nc1ccnc(Cl)c1)OCC(C)(CO)NS2(=O)=O (single isomer, unassigned) [Compound 204b, N-(2-chloro-4-pyridyl)-3-(hydroxymethyl)-3,7-dimethyl-1,1-dioxo-2,4-dihydropyrrolo[3,4-b][1,4,5]oxathiazepine-6-carboxamide] | > 125 | > 25000 | – | – | –
18 | Cn1ccc(CC2(C)COc3c(cn(C)c3C(=O)Nc3ccnc(C(F)F)c3)S(=O)(=O)N2)n1 (single isomer, unassigned) [Compound 217b, N-[2-(difluoromethyl)-4-pyridyl]-3,7-dimethyl-3-[(1-methylpyrazol-3-yl)methyl]-1,1-dioxo-2,4-dihydropyrrolo[3,4-b][1,4,5]oxathiazepine-6-carboxamide] | 100 | > 25000 | – | – | –
19 | Cc1cccc(C2(C)COc3c(cn(C)c3C(=O)Nc3ccc(F)c(F)c3)S(=O)(=O)N2)n1 (single isomer, unassigned) [Compound 168b, N-(3,4-difluorophenyl)-3,7-dimethyl-3-(6-methyl-2-pyridyl)-1,1-dioxo-2,4-dihydropyrrolo[3,4-b][1,4,5]oxathiazepine-6-carboxamide] | 15 | > 25000 | – | – | –
20 | Cn1cc2c(c1C(=O)Nc1cc(F)c(F)c(F)c1)OC[C@H](C(O)C1CC1)NS2(=O)=O (single isomer, unassigned) [Compound 208b, 3-[cyclopropyl(hydroxy)methyl]-7-methyl-1,1-dioxo-N-(3,4,5-trifluorophenyl)-3,4-dihydro-2H-pyrrolo[3,4-b][1,4,5]oxathiazepine-6-carboxamide] | 11 | > 25000 | – | – | –
21 | Cn1cc2c(c1C(=O)Nc1cc(F)c(F)c(F)c1)CCC(C(C)(C)O)NS2(=O)=O (single isomer, unassigned) [Compound 149b, 3-(1-hydroxy-1-methyl-ethyl)-7-methyl-1,1-dioxo-N-(3,4,5-trifluorophenyl)-2,3,4,5-tetrahydropyrrolo[3,4-f]thiazepine-6-carboxamide] | 10 | > 25000 | – | – | –
22 | CCC(O)[C@H]1COc2c(cn(C)c2C(=O)Nc2ccc(F)c(C(F)F)c2)S(=O)(=O)N1 (stereo partly drawn) [Compound 124b, (3R)—N-[3-(difluoromethyl)-4-fluoro-phenyl]-3-(1-hydroxypropyl)-7-methyl-1,1-dioxo-3,4-dihydro-2H-pyrrolo[3,4-b][1,4,5]oxathiazepine-6-carboxamide] | 4 | > 25000 | – | – | –
23 | Cc1cc(CC2(C)COc3c(cn(C)c3C(=O)Nc3ccc(F)c(C(F)F)c3)S(=O)(=O)N2)n(C)n1 (single isomer, unassigned) [Compound 176b, N-[3-(difluoromethyl)-4-fluoro-phenyl]-3-[(2,5-dimethylpyrazol-3-yl)methyl]-3,7-dimethyl-1,1-dioxo-2,4-dihydropyrrolo[3,4-b][1,4,5]oxathiazepine-6-carboxamide] | – | > 25000 | – | – | –
24 | Cn1cncc1CC1(C)COc2c(cn(C)c2C(=O)Nc2ccc(F)c(F)c2)S(=O)(=O)N1 (stereo not drawn) [Compound 174, N-(3,4-difluorophenyl)-3,7-dimethyl-3-[(3-methylimidazol-4-yl)methyl]-1,1-dioxo-2,4-dihydropyrrolo[3,4-b][1,4,5]oxathiazepine-6-carboxamide] | – | – | 7 | > 25 | 265.5
